One test relates to HCMV strain AD169-GFP. The test is described as follows: HCMV-GFP-based antiviral assay in HFF. It is filed as cell-based, human cytomegalovirus.
Test [1] deals with ganciclovir (GCV)-resistant HCMV strain ADP169-GFP314. The test is described as follows: HCMV-GFP-based antiviral assay, ganciclovir-resistant strain. It is filed as cell-based, human cytomegalovirus. The protocol: A series of laboratory variants of AD169-GFP virus that are resistant to GCV was generated. HFF were infected in 12-well plates at a multiplicity of infection (MOI) of 0.002 and incubated with […] Ganciclovir. GFP expression in infected cells was monitored microscopically, and the supernatants from the positive wells were transferred to fresh cells weekly. Thereby Ganciclovir concentrations were increased stepwise (a […] increase at each step) up to the point where total virus replication became critical and resistant virus was grown in individual wells. Using supernatants from these wells, two rounds of plaque purifications were performed in HFF. Finally, Ganciclovir-resistant viral clones (AD169-GFP314) which were able to replicate in the presence of […] GCV were isolated.
HFF were cultured to 90% confluency in 12-well plates and used for infection with AD169-GFP HCMV-virus at a tissue culture infective dose of 0.5 (GFP-TCID50 0.5, referring to an MOI of 0.002 as determined by plaque assay titration). Virus inoculation was performed for 90 min at 37° C. with occasional shaking before virus was removed and the cell layers were rinsed with phosphate-buffered saline (PBS). Then infected cell layers were incubated with 2.5 ml of MEM containing 5% (vol/vol) fetal calf serum with or without a dilution of one of the respective test compounds. Infected cells were incubated at 37° C. under a 5% CO2 atmosphere for 7 days. For lysis, […] of lysis buffer (25 mM Tris [pH 7.8], 2 mM dithiothreitol [DTT], 2 mM trans-1,2-diaminocyclohexane-N,N,N9,N9-tetraacetic acid, 1% Triton X-100, 10% glycerol) was added to each well and incubated for 10 min at 37° C., followed by a 30-min incubation at room temperature on a shaker. Lysates were centrifuged for 5 min at 15,000 rpm in an Eppendorf centrifuge to remove cell debris. […] The […] of compounds against virus replication was determined by EC50 (50% effective concentration).

In the next test the test system is HPV11. The test is described as follows: HPV genome replicon assay (NanoLuc) in C-33 A cells, HPV11. It is filed as cell-based, Human Papilloma Virus. Particulars: reference compound; value within the prescribed range. The source says: C-33 A, […] were obtained from ATCC and maintained in standard growth medium of MEM with Earl's salts supplemented with 10% FBS (Hyclone, Inc. Logan UT), L-glutamine, penicillin, and gentamycin.
HPV genome replicon assay was developed and expresses the essential E1 and E2 proteins from the native promoter. The E2 origin binding protein interacts with the virus origin of replication and recruits the E1 replicative helicase which unwinds the DNA and helps to recruit the cellular DNA replication machinery (including DNA polymerases, type I and type II topoisomerases, DNA ligase, single-stranded DNA binding proteins, proliferating cell nuclear antigen). The replication complex then drives the amplification of the replicon which can be assessed by the expression of a destabilized NanoLuc reporter gene carried on the replicon. In the HPV11 assay, the replicon (pMP619) is transfected into C-33 A cells grown as monolayers in 384-well plates. At 48 h post transfection, the enzymatic activity of the destabilized NanoLuc reporter is assessed with NanoGlo reagent. […] Analysis of HPV genome replication in specific types of HPV, such as HPV6, HPV11, or HPV31 is performed with plasmid systems that utilize each HPV type.

For `C=C(F)C(=O)Nc1ccc2c(-c3ccccc3CNc3nc(N[C@@H]4CCC(C)(C)NC4)nc4c(C(C)C)cnn34)nccc2c1` [Compound 174], the “antiviral effectiveness against non-resistant viruses” value in the test with HCMV strain AD169-GFP is “highly effective”. For the same compound, the “antiviral effectiveness against viruses resistant to nucleobase analogue drugs” value in test [1] was “highly effective”.

As for `C=C(F)C(=O)Nc1ccc2c(-c3ccccc3CNc3nc(NC4CCC(C)(C)NC4)nc4c(C(C)C)cnn34)nccc2c1` (stereo not shown) [Compound 175], the “antiviral effectiveness against non-resistant viruses” value with HCMV strain AD169-GFP was “highly effective”. Further, the “antiviral effectiveness against viruses resistant to nucleobase analogue drugs” value in test [1] is reported as “highly effective”.

For `C=C(F)C(=O)Nc1ccc2c(-c3ccccc3CNc3nc(OC4CCC(C)(C)NC4)nc4c(C(C)C)cnn34)nccc2c1` (stereo not shown) [Compound 177], the “antiviral effectiveness against non-resistant viruses” value in the test with HCMV strain AD169-GFP is “highly effective”. Moreover, the “antiviral effectiveness against viruses resistant to nucleobase analogue drugs” value in test [1] is “highly effective”.

Turning to `Nc1nc2c(ncn2CCOCP(=O)(O)O)c(=O)[nH]1` [PMEG], in the test on HPV11, the concentration for a half-maximal effect (EC50) (as a rule, the concentration needed to bring the measured effect to its halfway point) fell in the range of 2 to 9.2 µM.

The values above are taken from patent US20250205242A1, “CDK7 INHIBITORS FOR ANTIVIRAL TREATMENT” (QURIENT CO., LTD., priority 2022, published 2025).
